# Source: PMC11505038, “Kalata B1 Enhances Temozolomide Toxicity to Glioblastoma Cells” (Biomedicines, 2024)
# Where a SMILES comes first, the peptide text is derived from it. Bridges are numbered along the chain shown (N, C = ends).
# Key:
# [1] = tested on: U-87 MG human glioblastoma cells; assay: cells; conditions: read-out: IC50 (μM) ± S.D.; U-87 MG, MTT, 72 h, 6000 cells/well, cyclotides 0.1-10 μM, TMZ 0.5-5000 μM, best fit nonlinear regression, triplicate wells, n = 3
# Method: SH-SY5Y human neuroblastoma cells (population doubling (PD) 20−24), T-98G, and U-87 MG human glioblastoma cells were removed from cryogenic storage, thawed rapidly in a water bath (37 °C) and reconstituted in 75 cm^2 flasks. For SH-SY5Y, the following media were used: Dulbecco’s modified Eagle’s medium/Nutrient F12 Ham (Sigma-Aldrich, Cat. No. D8437) containing 10% heat-inactivated fetal bovine serum, 4 mM L-glutamine, 100 U/mL penicillin, and 100 μg/mL streptomycin. For U-87 MG and T-98G Eagle’s minimal essential medium (ATCC: The Global Bioresource Center, Cat. No. ATCC 30-2003), containing 10% heat-inactivated fetal bovine serum, 4 mM L-glutamine, 100 U/mL penicillin, and 100 μg/mL streptomycin were used.
# Cells were incubated at 37 °C in a humidified atmosphere of 5% CO2 and 95% air until recovered and ready for passaging (approximately 4 days). At between 80% and 90% confluence, the cells were trypsinized with warm (37 °C) sterile 0.5% Trypsin-EDTA (Thermo Fisher, Cat. No. 15400054) and passaged into 175 cm^2 flasks, where they were left to multiply until they reached 80−90% confluence. To plate cells: cultures were trypsinized, resuspended in 20 mL sterile PBS, counted using a cell counter (Olympus cell counter model R1), and plated in 96-well plates at an optimal density of 6000 cells/well in the designated culture media. The cells were left to adhere overnight before treatment the following day, when the culture medium was removed and replaced with the treatment medium. All incubations were conducted in triplicate wells and repeated at least three times (n = 3).
# To calculate TMZ IC50 values in each cell line, TMZ was dissolved in DMSO at a stock concentration of 103 mM, which was then diluted into culture medium on the day of use, with the DMSO final concentration always less than 0.1%. The following concentrations of TMZ were used in the experiments: 0.5, 5, 50, 500, 2500, 5000 μM. The media were sterilized for each treatment media with a 0.22 μm filter before they were added to cell cultures. To determine the IC50 values for each cyclotide in each cell type, cyclotides were dissolved into 10% DMSO and then dilutions used to screen cyclotides with a final DMSO concentration of less than 0.1% The following concentrations of cyclotides were used: 0.1, 1, 5, 10 μM. For co-exposure experiments, a simultaneous exposure of cyclotide and TMZ at each respective dose was added to cell cultures (100 μL final volume per well).
# In accordance with the methods developed by Mosmann and colleagues, the MTT assay was conducted using the Roche cell proliferation kit (Cat. No. 11465007001). Briefly, cells that are active can cleave MTT. The MTT is originally a yellow tetrazolium salt that undergoes a colorimetric change to purple formazan crystals, and the change in absorbance can be measured as an indicator of cell viability/proliferation. For these experiments, cells were plated into 96-well flat-bottom plates, as described in the cell culture above. […] To align with our previous work, experiments were conducted with a 72 h time frame for cytotoxicity evaluation.
# After a 72 h incubation period, plates were removed from the incubator and 10 µL of MTT was added to each well. The plates were returned to the incubator for an additional 4 h, after which 100 µL of a solubilization solution was added to each well. The plates were returned to incubation overnight, and the next day absorbances were read at 570 nm on a Molecular Devices FlexStation 3 using SoftMax Pro Microplate Data Acquisition and Analysis Software (version 7.0.2).
# [2] = Human serum stability assay (UPLC-MS); conditions: data points of 3 h, 8 h and 24 h; human serum from male AB plasma, 300 µM stock diluted 10 times, 37 °C, UPLC-MS peak area vs control, triplicate
# Method: Established protocols were used to analyze peptide stability in human serum isolated from male AB plasma (Sigma-Aldrich). Briefly, thawed plasma was centrifuged for 10 min at 15,000× g to concentrate lipids. The supernatant was carefully removed with a Pasteur pipette and incubated for 15 min at 37 °C, 5% CO2. […] Controls were synthetic Kalata B1 or TMZ in PBS that were incubated in parallel with human serum test compounds. Serum proteins were denatured with urea (final concentration of 3M) at 4 °C for 10 min., at each time point. Afterwards, trichloroacetic acid (7% final v/v) was added for 10 min to precipitate the proteins. Each sample was centrifuged for 10 min at 15,000× g; the supernatant was removed an evaluated in triplicate using UPLC-MS.
# We conducted peptide stability assays in human serum isolated from male AB plasma and then analyzed with UPLC-MS. Synthetic Kalata B1 and TMZ were incubated with human serum and the portion of the peptide remaining was quantified by calculating the area of the respective elution peak in UPLC-MS, compared to the control.
# Percentage of Kalata B1 and TMZ remaining upon incubation with human serum. The portion of serum-treated peptide remaining was determined by calculating the area of the respective elution peak in UPLC-MS and comparing it with the control without incubation. Data points are means ± SEM.
# [3] = cited from earlier work
# Source text: One of our objectives is to promote research that investigates methods to decrease the required concentrations of drugs such as TMZ for efficacy in vivo. Therefore, it is important to analyze the stability of cyclotides in human serum. The trypsin inhibitor cyclotide, MCoTI-II, has been extracted from the seeds of Momordica cochinchinensis Spreng. [Cucurbitaceae]. […] Huang and colleagues repeated these experiments with MCoTI-II and an ...
# [4] = tested on: U-87 MG cells; conditions: cited from earlier work
# [5] = tested on: glioblastoma cells; conditions: cited from earlier work
compound,measurement,setting,value
"CC[C@H](C)[C@@H]1NC(=O)[C@H](C)NC(=O)[C@H](CO)NC(=O)[C@H]([C@@H](C)O)NC(=O)[C@H](CC(C)C)NC(=O)[C@@H]2CSSC[C@@H]3NC(=O)[C@H](C(C)C)NC(=O)[C@H](CCCCN)NC(=O)[C@H](CO)NC(=O)[C@H](CCCCN)NC(=O)[C@@H]4CSSC[C@H](NC(=O)[C@H](CO)NC(=O)[C@H](CCC(=O)O)NC(=O)CNC(=O)[C@H](CSSC[C@H](NC(=O)CNC1=O)C(=O)N[C@@H](CO)C(=O)N4)NC(=O)[C@@H]1CCCN1C(=O)[C@H]([C@@H](C)CC)NC(=O)CNC(=O)[C@H](CC(N)=O)NC(=O)[C@H](CCCNC(=N)N)NC(=O)[C@H](Cc1ccc(O)cc1)NC3=O)C(=O)N[C@@H](C(C)C)C(=O)N[C@@H](Cc1c[nH]c3ccccc13)C(=O)N[C@@H]([C@@H](C)CC)C(=O)N1CCC[C@H]1C(=O)N2 [CyO3, Cycloviolacin O3] (cyclo(AIGCSCKSKVCYRNGIPCGESCVWIPCLTS); disulfide 4-18, 6-22, 11-27)",IC50,[1],2.6 ± 0.05 µM
"CC[C@H](C)[C@@H]1NC(=O)[C@@H]2CSSC[C@@H]3NC(=O)[C@H](C(C)C)NC(=O)[C@H](CCCCN)NC(=O)[C@H](CO)NC(=O)[C@H](CCCCN)NC(=O)[C@@H]4CSSC[C@H](NC(=O)[C@H](CO)NC(=O)[C@H](CCC(=O)O)NC(=O)CNC(=O)[C@H](CSSC[C@H](NC(=O)CNC(=O)[C@H](C(C)C)NC(=O)[C@H](C(C)C)NC(=O)[C@H](CO)NC(=O)[C@H](CO)NC1=O)C(=O)N[C@@H](CO)C(=O)N4)NC(=O)[C@@H]1CCCN1C(=O)[C@H](CC(C)C)NC(=O)[C@H]([C@@H](C)O)NC(=O)CNC(=O)[C@H](CC(=O)O)NC(=O)[C@H](CCCCN)NC(=O)[C@H](Cc1ccc(O)cc1)NC3=O)C(=O)N[C@@H](C(C)C)C(=O)N[C@@H](Cc1c[nH]c3ccccc13)C(=O)N[C@@H]([C@@H](C)CC)C(=O)N1CCC[C@H]1C(=O)N2 [CyO19, Cycloviolacin O19] (cyclo(CGESCVWIPCISSVVGCSCKSKVCYKDGTLP); disulfide 1-17, 5-19, 10-24)",IC50,[1],2.4 ± 0.07 µM
CC(C)C[C@@H]1NC(=O)CNC(=O)[C@H](CC(N)=O)NC(=O)[C@H](CCCNC(=N)N)NC(=O)[C@H]([C@@H](C)O)NC(=O)[C@@H]2CSSC[C@@H]3NC(=O)[C@H]([C@@H](C)O)NC(=O)CNC(=O)CNC(=O)[C@H](C(C)C)NC(=O)[C@@H]4CSSC[C@H](NC(=O)[C@H]([C@@H](C)O)NC(=O)[C@H](CSSC[C@H](NC(=O)[C@H](C(C)C)NC(=O)[C@@H]5CCCN5C1=O)C(=O)NCC(=O)N[C@@H](CCC(=O)O)C(=O)N[C@@H]([C@@H](C)O)C(=O)N4)NC(=O)CNC(=O)[C@@H]1CCCN1C(=O)[C@H]([C@@H](C)O)NC(=O)[C@H](CC(N)=O)NC3=O)C(=O)N[C@@H](CO)C(=O)N[C@@H](Cc1c[nH]c3ccccc13)C(=O)N1CCC[C@H]1C(=O)N[C@@H](C(C)C)C(=O)N2 [Kalata B1],Stability in human serum (in words),[2],remained stable
CC(C)C[C@@H]1NC(=O)CNC(=O)[C@H](CC(N)=O)NC(=O)[C@H](CCCNC(=N)N)NC(=O)[C@H](Cc2ccccc2)NC(=O)[C@@H]2CSSC[C@@H]3NC(=O)[C@H]([C@@H](C)O)NC(=O)CNC(=O)CNC(=O)[C@H](C(C)C)NC(=O)[C@@H]4CSSC[C@H](NC(=O)[C@H](CO)NC(=O)[C@H](CSSC[C@H](NC(=O)[C@H](C(C)C)NC(=O)[C@@H]5CCCN5C1=O)C(=O)NCC(=O)N[C@@H](CCC(=O)O)C(=O)N[C@@H]([C@@H](C)O)C(=O)N4)NC(=O)CNC(=O)[C@@H]1CCCN1C(=O)[C@H]([C@@H](C)O)NC(=O)[C@H](CC(N)=O)NC3=O)C(=O)N[C@@H](CO)C(=O)N[C@@H](Cc1c[nH]c3ccccc13)C(=O)N1CCC[C@H]1C(=O)N[C@@H](C(C)C)C(=O)N2 [Vitri E],IC50,[1],21.1 ± 2.9 µM
"MCoTI-II: trypsin inhibitor cyclotide extracted from the seeds of Momordica cochinchinensis; three-disulfide peptide (cyclo(SGSDGGVCPKILKKCRRDSDCPGACICRGNGYCG); disulfide (positions not given here); also: three disulfides, pairing not given here; UniProt P82409 1-34, looked up)",Peptide remaining in human serum,[3]; 24 h,100%
same,Time for which the peptide remained stable in human serum,[3],at least 24 h
Varv peptide A,Fold less TMZ required for significant cell death on co-exposure with the cyclotide,[4],2 fold
same,IC50,[5],2910 nM
